Legend:
[1] = molecular target: Somatostatin receptor type 2 (Homo sapiens, UniProt P30874); assay: Displacement of [3-125l-Tyr]-somatostatin-(1 -14) from human recombinant somatostatin 2 receptor expressed in CHO cell membranes incubated for 180 mins
[2] = molecular target: Somatostatin receptor type 5 (Homo sapiens, UniProt P35346); assay: Displacement of [3-125l-Tyr]-somatostatin-(1 -14) from human recombinant somatostatin 5 receptor expressed in CHO cell membranes incubated for 180 mins
[3] = Metabolic stability in pooled human liver microsomes assessed as half life at 0.1 uM at 37 degC in presence of NADPH by LC-MS/MS method; format: ADME
[4] = molecular target: Somatostatin receptor type 3 (Homo sapiens, UniProt P32745); assay: Displacement of [3-125l-Tyr]-somatostatin-(1 -14) from human recombinant somatostatin 3 receptor expressed in CHO cell membranes incubated for 180 mins
[5] = molecular target: Somatostatin receptor type 1 (Homo sapiens, UniProt P30872); assay: Displacement of [3-125l-Tyr]-somatostatin-(1 -14) from human recombinant somatostatin 1 receptor expressed in CHO cell membranes incubated for 180 mins
Somatostatin receptor type 1, sequence (P30872 whole entry): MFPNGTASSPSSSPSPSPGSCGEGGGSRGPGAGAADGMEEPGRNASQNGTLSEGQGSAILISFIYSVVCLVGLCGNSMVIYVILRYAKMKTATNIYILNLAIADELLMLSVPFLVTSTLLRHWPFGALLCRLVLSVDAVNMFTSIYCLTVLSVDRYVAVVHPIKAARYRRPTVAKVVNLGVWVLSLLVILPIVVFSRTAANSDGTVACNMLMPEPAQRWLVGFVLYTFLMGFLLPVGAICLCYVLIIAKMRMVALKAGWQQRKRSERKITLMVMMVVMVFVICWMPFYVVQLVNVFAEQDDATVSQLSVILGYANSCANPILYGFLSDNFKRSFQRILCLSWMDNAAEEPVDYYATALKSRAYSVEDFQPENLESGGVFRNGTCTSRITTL

Somatostatin receptor type 2, sequence (P30874 whole entry): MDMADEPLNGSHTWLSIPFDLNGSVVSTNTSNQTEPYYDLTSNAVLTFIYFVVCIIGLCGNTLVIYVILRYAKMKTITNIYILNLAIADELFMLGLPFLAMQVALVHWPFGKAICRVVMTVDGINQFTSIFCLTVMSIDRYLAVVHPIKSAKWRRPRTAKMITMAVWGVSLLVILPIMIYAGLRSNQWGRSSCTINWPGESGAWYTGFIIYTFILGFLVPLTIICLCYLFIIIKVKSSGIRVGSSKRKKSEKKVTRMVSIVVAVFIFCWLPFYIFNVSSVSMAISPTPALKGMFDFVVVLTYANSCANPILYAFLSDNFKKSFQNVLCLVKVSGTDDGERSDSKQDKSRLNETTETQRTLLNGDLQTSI
Somatostatin receptor type 3, sequence (P32745 whole entry): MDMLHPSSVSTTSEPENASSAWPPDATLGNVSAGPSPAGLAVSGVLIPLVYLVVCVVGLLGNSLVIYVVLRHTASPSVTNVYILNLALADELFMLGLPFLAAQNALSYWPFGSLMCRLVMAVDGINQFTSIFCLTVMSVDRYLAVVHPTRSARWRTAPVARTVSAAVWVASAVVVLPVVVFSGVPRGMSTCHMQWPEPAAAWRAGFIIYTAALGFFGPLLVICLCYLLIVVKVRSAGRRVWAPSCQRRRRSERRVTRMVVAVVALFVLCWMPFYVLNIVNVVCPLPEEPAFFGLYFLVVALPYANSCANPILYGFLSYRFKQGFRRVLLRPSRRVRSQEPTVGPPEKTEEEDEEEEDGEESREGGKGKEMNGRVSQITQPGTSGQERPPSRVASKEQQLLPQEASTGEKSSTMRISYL
Somatostatin receptor type 5, sequence (P35346 whole entry): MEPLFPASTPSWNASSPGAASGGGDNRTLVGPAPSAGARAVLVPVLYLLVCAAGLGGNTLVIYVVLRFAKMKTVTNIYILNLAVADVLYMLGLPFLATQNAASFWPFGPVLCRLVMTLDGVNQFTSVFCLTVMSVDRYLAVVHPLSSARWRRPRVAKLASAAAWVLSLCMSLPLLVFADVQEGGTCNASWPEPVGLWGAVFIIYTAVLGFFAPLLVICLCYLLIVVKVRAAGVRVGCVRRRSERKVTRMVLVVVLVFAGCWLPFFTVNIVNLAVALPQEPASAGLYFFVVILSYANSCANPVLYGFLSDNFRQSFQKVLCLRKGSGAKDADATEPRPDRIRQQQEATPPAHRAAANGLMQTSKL

Structure (SMILES) | Ki [1] | Ki [2] | half-life at 0.1 µM [3] | Ki [4] | Ki [5]
Cc1nc(C(C)(C)NC(=O)[C@H]2[C@@H]3CNC[C@@H]32)c2ccccc2n1 | > 9.63 µM | > 9.86 µM | > 2.17 h | > 8.71 µM | 
Cn1nc(C(C)(C)NC(=O)[C@H]2[C@@H]3CNC[C@@H]32)c2ccccc21 | > 9.6 µM | > 9.86 µM | > 2.17 h | > 8.62 µM | 
Cc1cc2ccccc2c(C(C)(C)NC(=O)[C@H]2[C@@H]3CNC[C@@H]32)n1 | > 9.59 µM | > 9.85 µM | > 2.17 h |  | 
CC(C)(NC(=O)[C@H]1[C@@H]2CNC[C@@H]21)c1noc2c(F)cccc12 | > 9.6 µM | > 9.85 µM | > 2.17 h | > 8.6 µM | > 9.09 µM
